Among the data in paper doi:10.1101/2025.10.09.681351v1 (biorxiv, 2025) are Kd values, retold here.

The target of experiment [1] is EPAS1 (mouse recombinant EPAS1; HIF-2α) (Mus musculus, UniProt P97481). The experiment in a line: isothermal titration calorimetry. The format is binding.
A further experiment deals with recombinant human EPAS1 (Homo sapiens, UniProt Q99814). The experiment in a line: isothermal titration calorimetry. It counts as binding.

pKd: −log10 of the molar value.

EPAS1 (mouse recombinant EPAS1; HIF-2α), sequence (P97481 whole entry): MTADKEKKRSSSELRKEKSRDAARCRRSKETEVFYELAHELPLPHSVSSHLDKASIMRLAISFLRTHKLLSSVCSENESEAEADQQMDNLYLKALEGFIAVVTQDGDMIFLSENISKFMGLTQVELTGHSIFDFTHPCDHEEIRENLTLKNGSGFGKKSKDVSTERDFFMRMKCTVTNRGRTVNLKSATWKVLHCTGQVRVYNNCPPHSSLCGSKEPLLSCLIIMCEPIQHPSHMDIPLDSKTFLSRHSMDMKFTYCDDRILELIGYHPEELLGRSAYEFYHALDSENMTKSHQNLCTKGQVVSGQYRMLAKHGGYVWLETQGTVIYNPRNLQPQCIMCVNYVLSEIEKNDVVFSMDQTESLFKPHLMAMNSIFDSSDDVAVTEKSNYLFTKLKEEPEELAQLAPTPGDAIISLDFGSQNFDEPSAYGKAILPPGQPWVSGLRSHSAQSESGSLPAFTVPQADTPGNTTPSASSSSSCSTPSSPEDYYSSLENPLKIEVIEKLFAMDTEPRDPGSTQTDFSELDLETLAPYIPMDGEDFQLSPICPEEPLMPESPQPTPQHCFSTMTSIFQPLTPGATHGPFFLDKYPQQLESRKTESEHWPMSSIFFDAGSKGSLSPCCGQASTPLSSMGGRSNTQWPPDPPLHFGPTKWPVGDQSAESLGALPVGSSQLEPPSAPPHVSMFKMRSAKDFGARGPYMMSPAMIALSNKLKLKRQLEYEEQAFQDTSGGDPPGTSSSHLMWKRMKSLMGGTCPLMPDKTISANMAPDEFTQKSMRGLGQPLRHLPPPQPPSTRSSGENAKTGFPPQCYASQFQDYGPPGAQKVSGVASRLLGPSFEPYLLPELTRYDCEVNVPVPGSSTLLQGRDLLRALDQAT
recombinant human EPAS1, sequence (Q99814 whole entry): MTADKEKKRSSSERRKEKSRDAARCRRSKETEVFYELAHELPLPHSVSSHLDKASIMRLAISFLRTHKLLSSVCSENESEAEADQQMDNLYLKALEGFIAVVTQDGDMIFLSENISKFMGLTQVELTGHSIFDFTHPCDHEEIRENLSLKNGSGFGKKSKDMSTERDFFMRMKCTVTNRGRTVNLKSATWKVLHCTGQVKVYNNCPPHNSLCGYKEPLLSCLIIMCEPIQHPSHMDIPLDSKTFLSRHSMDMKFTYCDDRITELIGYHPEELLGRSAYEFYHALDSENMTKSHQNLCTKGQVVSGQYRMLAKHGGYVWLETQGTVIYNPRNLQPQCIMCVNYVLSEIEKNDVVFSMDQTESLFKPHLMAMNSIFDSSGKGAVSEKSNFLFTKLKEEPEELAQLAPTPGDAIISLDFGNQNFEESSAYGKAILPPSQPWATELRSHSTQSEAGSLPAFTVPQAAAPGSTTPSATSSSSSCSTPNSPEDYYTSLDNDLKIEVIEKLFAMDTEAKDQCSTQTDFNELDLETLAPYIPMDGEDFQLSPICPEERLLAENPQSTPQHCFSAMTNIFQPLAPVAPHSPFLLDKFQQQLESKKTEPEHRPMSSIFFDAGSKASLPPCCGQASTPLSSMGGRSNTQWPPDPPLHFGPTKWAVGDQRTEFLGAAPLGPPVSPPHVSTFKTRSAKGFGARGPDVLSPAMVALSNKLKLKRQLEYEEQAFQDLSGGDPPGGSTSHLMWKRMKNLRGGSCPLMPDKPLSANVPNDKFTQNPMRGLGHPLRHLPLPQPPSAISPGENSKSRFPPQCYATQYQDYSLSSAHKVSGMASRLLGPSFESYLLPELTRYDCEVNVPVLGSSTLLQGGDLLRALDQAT

Turning to `CCCCCCCCC/C=C\C(=O)O` [BDSF], the pKd in experiment [1] was 5.37; at recombinant human EPAS1, 5.28.
